Test results reported in patent US10144742B2 (Millennium Pharmaceuticals, Inc., priority 2014, dated 2018).

Tests used:
hNAMPT protein = hNAMPT protein (Homo sapiens (Human), UniProt P43490); assay: NAMPT enzyme assay (TR-FRET/HTRF, BodiPY ligand, anti 6His-Tb); format: binding; conditions: for IC50: NAMPT IC50 range class, read-out: IC50; for inhibition at 1 µM: compound concentration 1 μM, read-out: Percent Inhibition
Summary of the method: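 Compound or DMSO was incubated for 1 h at room temperature, protected from light, with BodiPY ligand and hNAMPT labelled by terbium anti-6His antibody. The 520 nm to 486 nm emission ratio after 320 nm excitation gave inhibition versus vehicle, from which concentration-response curves yielded IC50.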

PC3 cells = assay: PC3 growth inhibition (Cell-titer glo, 72 hours); format: cell-based; conditions: Homo sapiens, PC-3, PC3 cells, 72 hours, Cell-titer glo, read-out: Percent Inhibition (PC3 growth inhibition); for inhibition at 1 µM: compound concentration 1 μM; for inhibition at 1.667 µM: compound concentration 1.667 μM
Summary of the method: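 Compounds in AIM serum-free medium were applied for 72 h at 37 °C, 5% CO2 to PC3 cells plated overnight from RPMI1640 culture. Luminescence after 10 min CellTiter-Glo, normalised to DMSO, gave % viability at 1 μM or 1.667 μM, or GI50/LD50.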

Sequence of hNAMPT protein (P43490 whole entry): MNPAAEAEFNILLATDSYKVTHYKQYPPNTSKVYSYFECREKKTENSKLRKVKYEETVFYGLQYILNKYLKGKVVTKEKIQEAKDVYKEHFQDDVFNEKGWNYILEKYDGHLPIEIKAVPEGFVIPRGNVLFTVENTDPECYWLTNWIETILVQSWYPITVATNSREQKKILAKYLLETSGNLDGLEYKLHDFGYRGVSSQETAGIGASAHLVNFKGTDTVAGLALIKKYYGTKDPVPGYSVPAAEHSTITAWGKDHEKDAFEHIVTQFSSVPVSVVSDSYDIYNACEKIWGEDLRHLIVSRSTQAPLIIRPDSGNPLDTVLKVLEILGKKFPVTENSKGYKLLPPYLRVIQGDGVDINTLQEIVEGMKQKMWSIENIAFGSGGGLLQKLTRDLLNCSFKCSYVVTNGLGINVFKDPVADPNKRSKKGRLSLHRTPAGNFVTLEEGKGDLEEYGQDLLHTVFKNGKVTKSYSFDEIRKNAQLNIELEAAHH

| Compound | IC50 (hNAMPT protein) | inhibition at 1 µM (hNAMPT protein) | inhibition at 1 µM (PC3 cells) | inhibition at 1.667 µM (PC3 cells) |
| --- | --- | --- | --- | --- |
| CS(=O)(=O)Nc1cccc(-c2nc3ccc(C(=O)NCCCn4ccnc4)cc3nc2-c2ccccc2)c1 [Compound I-290, N-[3-(1H-imidazol-1-yl)propyl]-2-{3-[(methylsulfonyl)amino]phenyl}-3-phenylquinoxaline-6-carboxamide] | 100 to 500 nM | 81% | -8% | – |
| COc1cccc(-c2nc3cc(C(=O)NCCc4cccnc4)ccc3nc2N2CCC(N3CCOCC3)CC2)c1 [Compound I-291, 3-(3-Methoxyphenyl)-2-[4-(morpholin-4-yl)piperidin-1-yl]-N-[2-(pyridin-3-yl)ethyl]quinoxaline-6-carboxamide] | < 100 nM | 98% | – | 2% |
| Cn1cncc1CCNC(=O)c1ccc2nc(N3CCC(O)CC3)c(-c3ccc(F)cc3)nc2c1 [Compound I-292, 3-(4-fluorophenyl)-2-(4-hydroxypiperidin-1-yl)-N-[2-(1-methyl-1H-imidazol-5-yl)ethyl]quinoxaline-6-carboxamide] | < 100 nM | 90% | – | 2% |
| Cn1cc2c(n1)CN(c1nc3cc(C(=O)NCCCn4ccnc4)ccc3nc1-c1ccccc1)CC2 [Compound I-295, N-[3-(1H-imidazol-1-yl)propyl]-3-(2-methyl-2,4,5,7-tetrahydro-6H-pyrazolo[3,4-c]pyridin-6-yl)-2-phenylquinoxaline-6-carboxamide] | 1000 to 2000 nM | 49% | -6% | – |
| O=C(NCCCn1ccnc1)c1ccc2nc(N3CCn4ccnc4C3)c(-c3ccccc3)nc2c1 [Compound I-296, 2-(5,6-dihydroimidazo[1,2-a]pyrazin-7(8H)-yl)-N-[3-(1H-imidazol-1-yl)propyl]-3-phenylquinoxaline-6-carboxamide] | 500 to 1000 nM | 67% | -7% | – |
| O=C(NCCCc1cn[nH]c1)c1ccc2nc(N3CCOCC3)c(-c3ccc(F)cc3)nc2c1 [Compound I-297, 3-(4-Fluorophenyl)-2-(morpholin-4-yl)-N-[3-(1H-pyrazol-4-yl)propyl]quinoxaline-6-carboxamide] | 100 to 500 nM | 88% | – | 2% |
| O=C(NCCCc1ncc[nH]1)c1ccc2nc(N3CCC(O)CC3)c(-c3ccc(Cl)cc3)nc2c1 [Compound I-298, 3-(4-chlorophenyl)-2-(4-hydroxypiperidin-1-yl)-N-[3-(1H-imidazol-2-yl)propyl]quinoxaline-6-carboxamide] | < 100 nM | > 99% | – | 2% |
| O=C(NCc1ccc2nccn2c1)c1ccc2nc(-c3ccc(F)cc3)c(-c3ccc(F)cc3)nc2c1 [Compound I-299, 2,3-bis(4-fluorophenyl)-N-(imidazo[1,2-a]pyridin-6-ylmethyl)quinoxaline-6-carboxamide] | 100 to 500 nM | 76% | – | 2% |
| O=C(NCCCc1ncc[nH]1)c1ccc2nc(C3=CCOCC3)c(-c3cccs3)nc2c1 [Compound I-300, 2-(3,6-dihydro-2H-pyran-4-yl)-N-[3-(1H-imidazol-2-yl)propyl]-3-(2-thienyl)quinoxaline-6-carboxamide] | < 100 nM | > 99% | – | 32% |
| O=C(NCCCc1c[nH]cn1)c1ccc2nc(N3CCCCC3)c(-c3ccc(F)cc3)nc2c1 [Compound I-301, 3-(4-Fluorophenyl)-N-[3-(1H-imidazol-4-yl)propyl]-2-(piperidin-1-yl)quinoxaline-6-carboxamide] | < 100 nM | 99% | – | 2% |
| O=C(NCCc1cnc2ccccn12)c1ccc2nc(-c3ccc(F)cc3)c(-c3ccc(F)cc3)nc2c1 [Compound I-302, 2,3-bis(4-fluorophenyl)-N-[2-(imidazo[1,2-a]pyridin-3-yl)ethyl]quinoxaline-6-carboxamide] | 500 to 1000 nM | 63% | 87% | – |
| Cn1ccc2c1CN(C(=O)c1ccc3nc(-c4ccc(F)cc4)c(-c4ccc(F)cc4)nc3c1)CC2 [Compound I-303, [2,3-bis(4-fluorophenyl)quinoxalin-6-yl](1-methyl-1,4,5,7-tetrahydro-6H-pyrrolo[2,3-c]pyridin-6-yl)methanone] | 2000 to 10000 nM | 15% | 95% | – |
| COc1nn(C)c2c1CN(C(=O)c1ccc3nc(-c4ccc(F)cc4)c(-c4ccc(F)cc4)nc3c1)CC2 [Compound I-304, [2,3-bis(4-fluorophenyl)quinoxalin-6-yl](3-methoxy-1-methyl-1,4,6,7-tetrahydro-5H-pyrazolo[4,3-c]pyridin-5-yl)methanone] | 2000 to 10000 nM | 17% | 92% | – |
| O=C(NCCCc1ncc[nH]1)c1ccc2nc(-n3ncc4ccccc43)c(-c3ccc(F)cc3)nc2c1 [Compound I-305, 3-(4-fluorophenyl)-N-[3-(1H-imidazol-2-yl)propyl]-2-(1H-indazol-1-yl)quinoxaline-6-carboxamide] | < 100 nM | 93% | – | 3% |
| Cc1c(F)cc(-c2nc3cc(C(=O)NCCCc4ncc[nH]4)ccc3nc2-c2ccc(F)cc2)cc1F [Compound I-306, 3-(3,5-difluoro-4-methylphenyl)-2-(4-fluorophenyl)-N-[3-(1H-imidazol-2-yl)propyl]quinoxaline-6-carboxamide] | 500 to 1000 nM | 60% | – | 3% |
| CCc1nc2ccc(C(=O)NCCCc3ncc[nH]3)cc2nc1-c1ccc(F)cc1 [Compound I-307, 2-ethyl-3-(4-fluorophenyl)-N-[3-(1H-imidazol-2-yl)propyl]quinoxaline-6-carboxamide] | 100 to 500 nM | 73% | – | 4% |
| NS(=O)(=O)c1cccc(-c2nc3cc(C(=O)NCCCc4ncc[nH]4)ccc3nc2-c2ccc(F)cc2)c1 [Compound I-308, 2-(4-fluorophenyl)-N-[3-(1H-imidazol-2-yl)propyl]-3-(3-sulfamoylphenyl)quinoxaline-6-carboxamide] | 100 to 500 nM | 89% | – | 4% |
| Cc1cc(-c2nc3cc(C(=O)NCCCc4ncc[nH]4)ccc3nc2-c2ccc(F)cc2)cnc1Cl [Compound I-309, 3-(6-chloro-5-methylpyridin-3-yl)-2-(4-fluorophenyl)-N-[3-(1H-imidazol-2-yl)propyl]quinoxaline-6-carboxamide] | 100 to 500 nM | 86% | – | 3% |
| CC(C)Oc1nc2ccc(C(=O)NCCCc3nnc[nH]3)cc2nc1-c1ccc(F)cc1 [Compound I-310, 3-(4-fluorophenyl)-2-isopropoxy-N-[3-(4H-1,2,4-triazol-3-yl)propyl]quinoxaline-6-carboxamide] | 500 to 1000 nM | 62% | – | 4% |
| Cc1ccc(-c2nc3cc(C(=O)NCCCc4ncc[nH]4)ccc3nc2-c2ccc(F)cc2)cc1F [Compound I-311, 3-(3-fluoro-4-methylphenyl)-2-(4-fluorophenyl)-N-[3-(1H-imidazol-2-yl)propyl]quinoxaline-6-carboxamide] | 100 to 500 nM | 76% | – | 2% |
| O=C(NCCCc1ncc[nH]1)c1ccc2nc(-c3ccc(F)cc3)c(-c3cccc(Cl)c3F)nc2c1 [Compound I-312, 3-(3-chloro-2-fluorophenyl)-2-(4-fluorophenyl)-N-[3-(1H-imidazol-2-yl)propyl]quinoxaline-6-carboxamide] | < 100 nM | 94% | – | 2% |
| O=C(NCCCc1ncc[nH]1)c1ccc2nc(-c3ccc(F)cc3)c(-c3ccccc3F)nc2c1 [Compound I-313, 3-(2-fluorophenyl)-2-(4-fluorophenyl)-N-[3-(1H-imidazol-2-yl)propyl]quinoxaline-6-carboxamide] | 100 to 500 nM | 86% | – | 2% |
| O=C(NCCCc1ncc[nH]1)c1ccc2nc(OCC3CCCCC3)c(-c3ccc(F)cc3)nc2c1 [Compound I-314, 2-(cyclohexylmethoxy)-3-(4-fluorophenyl)-N-[3-(1H-imidazol-2-yl)propyl]quinoxaline-6-carboxamide] | < 100 nM | 91% | – | 3% |
| O=C(NCCCc1ncc[nH]1)c1ccc2nc(-c3ccc(Cl)cc3)c(-c3ccc(Cl)cc3)nc2c1 [Compound I-315, 2,3-bis(4-chlorophenyl)-N-[3-(1H-imidazol-2-yl)propyl]quinoxaline-6-carboxamide] | 100 to 500 nM | 88% | – | 1% |
| O=C(NCCCc1ncc[nH]1)c1ccc2nc(OCC3CC(F)(F)C3)c(-c3ccc(F)cc3)nc2c1 [Compound I-316, 2-[(3,3-difluorocyclobutyl)methoxy]-3-(4-fluorophenyl)-N-[3-(1H-imidazol-2-yl)propyl]quinoxaline-6-carboxamide] | < 100 nM | 98% | – | 2% |
| COc1cc(-c2nc3cc(C(=O)NCc4ccc5nccn5c4)ccc3nc2OC(C)C)c(F)cn1 [Compound I-317, 3-(5-fluoro-2-methoxypyridin-4-yl)-N-(imidazo[1,2-a]pyridin-6-ylmethyl)-2-isopropoxyquinoxaline-6-carboxamide] | 100 to 500 nM | 66% | – | 1% |
